Reference: ChEMBL document CHEMBL3886753, “Heterocyclic carboxylic acids as activators of soluble guanylate cyclase” (2016)

assay: Homogeneous Time Resolved Fluorescence Assay: The sGC cellular activator assay is performed in the presence and absence of 50% human serum (HS) using Chinese hamster ovary cells that have been stably transfected to express the human soluble guanylate cyclase alpha 1 and beta 1 subunits (sGC). Cells are preincubated with 40 microM 1H-[1,2,4]oxadiazolo[4,3-a]quinoxalin-1-one (ODQ), an sGC inhibitor, for one h in buffer containing 0.1% bovine serum albumin and 3-isobutyl-1-methylxanthine (IBMX). Concentration response curves are prepared for test compounds in DMSO. An intermediate dilution of the compounds is performed in either buffer containing IBMX or type AB HS containing IBMX. Diluted compounds are added to cells and they are incubated at room temperature for thirty min. cGMP is measured using a CisBio homogeneous time resolved fluorescence kit and the EC50 is calculated for each compound.

| EC50 [nM] | Structure (SMILES) |
| --- | --- |
| 5 | CO[C@@H]1CN(c2nc(-c3cc(F)cc(C)c3OCc3ccc4c(c3)[C@@H](C)CN(C3CCOCC3)CC4)cs2)CC[C@@H]1C(=O)O |
| 11 | CO[C@@H]1CN(c2nc(-c3cc(F)cc(C)c3OCc3ccc4c(c3)[C@H](C)CN(C3CCOCC3)CC4)cs2)CC[C@@H]1C(=O)O |
| 50 | Cc1ccc(OCc2ccc3c(c2C)CCN(C2COC2)CC3)c(-c2cccc(N3CC4C[C@]4(C(=O)O)C3)n2)c1 (stereo partly drawn) |
| 2 | Cc1cc(COc2c(C)cccc2-c2csc(N3CC[C@@]4(C(=O)O)C[C@H]4C3)n2)cc2c1CN(C1COC1)CC2 |
| 12 | Cc1ccc(OCc2ccc3c(c2C)CCN(C2CCOCC2)C3)c(-c2ccnc(N3CC[C@@]4(C(=O)O)C[C@H]4C3)n2)c1 |
| 6 | CO[C@@H]1CN(c2cccc(-c3cccc(C)c3OCc3ccc4c(c3C)CCN(C3CCOCC3)CC4)n2)CC[C@@H]1C(=O)O |
| 17 | Cc1cccc(-c2csc(N3CC[C@@]4(C(=O)O)C[C@H]4C3)n2)c1OCc1ccc2c(c1C)CCN(C1COC1)C2 |
| 2 | Cc1cccc(-c2csc(N3CC[C@@]4(C(=O)O)C[C@H]4C3)n2)c1OCc1ccc2c(c1C)CCN(C1CCOCC1)CC2 |
| 6 | Cc1cccc(-c2csc(N3CC[C@@]4(C(=O)O)C[C@H]4C3)n2)c1OCc1ccc2c(c1C)CCN(C1COC1)CC2 |
| 11 | Cc1cccc(-c2csc(N3CC[C@@]4(C(=O)O)C[C@H]4C3)n2)c1OCc1ccc2c(c1)CCN(C1CCOC1)CC2 (stereo partly drawn) |
| 17 | CO[C@H]1CN(c2nc(-c3cc(C)ccc3OCc3ccc4c(c3C)CCN(C[C@@H]3CCOC3)C4)cs2)CC[C@H]1C(=O)O |
| 32 | O=C(O)[C@@]12CCN(c3nccc(-c4ccccc4OCc4ccc5c(c4)CCN(C4CCOCC4)C5)n3)C[C@@H]1C2 |
| 73 | Cc1ccc(OCc2ccc3c(c2)CCN(C2COC2)C3)c(-c2csc(N3CC[C@@]4(C(=O)O)C[C@H]4C3)n2)c1 |
| 11 | Cc1cccc(-c2csc(N3CC[C@@]4(C(=O)O)C[C@H]4C3)n2)c1OCc1ccc2c(c1C)CCN(C1CCOCC1)C2 |
| 10 | Cc1cccc(-c2csc(N3CC[C@@]4(C(=O)O)C[C@H]4C3)n2)c1OCc1ccc2c(c1)CCN(C1CCOCC1)CC2 |
| 453 | Cc1cccc(-c2csc(N3CC[C@@]4(C(=O)O)C[C@H]4C3)n2)c1OCc1cnc2c(c1)CCN(C1CCOC1)C2 (stereo partly drawn) |
| 209 | Cc1cccc(-c2csc(N3CC[C@@]4(C(=O)O)C[C@H]4C3)n2)c1OCc1cnc2c(c1)CCN(C1CCOCC1)C2 |
| 11 | Cc1cc(COc2c(C)cccc2-c2csc(N3CC[C@@]4(C(=O)O)C[C@H]4C3)n2)cc2c1CN(CC1COCCO1)CC2 (stereo partly drawn) |
